Test results as given in patent US20230339900A1, “CASEIN KINASE 1 DELTA MODULATORS” (Janssen Pharmaceutica NV, priority 2020, published 2023).

Legend:
[1] = target: human CSNK1D tagged with nanoluciferase (Homo sapiens (Human), UniProt P48730); experiment: Whole Cell nBRET CSNK1D Binding Assay; conditions: living CHO cells stably expressing human CSNK1D-nanoluciferase; NanoBret tracer 130 nM; 2 hours 37° C.; read-out: CSNK1D BRET IC50
Procedure: This cellular binding assay uses a bioluminescence resonance energy transfer to measure human CSNK1D binding activity in living Chinese Hamster Ovary (CHO) cells that are stably expressing human CSNK1D tagged with nanoluciferase. The cells were grown to confluency in growth media (DMEM:F12, 50 u/mLPen/Strep, […] glutamine, and 0.6 mg/mL G418) in 10 cm^2 dishes. Cells were seeded onto white, opaque 384-well plates (Corning, cat #3704) at a density of 8,000 cells/well in serum-free OptiMEM and left to incubated overnight at 37° C., […]. The next day, test compounds were added in a dose response to the plate followed by a NanoBret tracer (130 nM). The plate is mixed on an orbital shaker for 30 seconds, then placed in a 37° C. incubator for 2 hours. NanoBret Nano-Glo Substrate solution (20 μL) is added to all wells and incubated for 3 minutes at room temperature. Donor (450 nm) and acceptor (630 nm) emissions are then measured within 10 minutes using a ClarioStar plate reader. The data is used to calculate millibret units, defined as (E630/E450)*1000. Bret emissions are then graphed against the log of compound concentrations and these graphs are used to determine the IC50 of each compound.

[2] = target: human recombinant GST cleaved CSNK1D (Homo sapiens (Human), UniProt P48730); experiment: Purified enzyme assay (ADP-Glo Kinase Assay); assay type: biochemical; conditions: 2 nM CSNK1D, peptide substrate 150 μM, ATP 20 μM, 45 minutes room temperature
human recombinant GST cleaved CSNK1D, sequence (P48730 whole entry): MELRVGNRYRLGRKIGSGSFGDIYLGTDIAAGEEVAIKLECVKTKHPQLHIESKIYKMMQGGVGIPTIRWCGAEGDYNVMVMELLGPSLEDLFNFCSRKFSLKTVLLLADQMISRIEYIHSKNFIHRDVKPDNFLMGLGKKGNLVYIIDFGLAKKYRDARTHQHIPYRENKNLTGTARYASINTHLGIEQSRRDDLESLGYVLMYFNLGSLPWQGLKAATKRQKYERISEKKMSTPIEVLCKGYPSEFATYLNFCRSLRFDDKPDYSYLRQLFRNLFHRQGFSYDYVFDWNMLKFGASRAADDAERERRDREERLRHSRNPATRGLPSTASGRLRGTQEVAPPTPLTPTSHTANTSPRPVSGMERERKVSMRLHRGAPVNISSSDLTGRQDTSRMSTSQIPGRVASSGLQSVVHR
Procedure: In this assay, CSNK1D phosphorylates a substrate peptide PLSRTL-pS-VASLPGL in the presence of ATP. […] This assay monitors CSNK1D kinase activity by measuring the amount of ADP produced in the assay. A substrate mix is prepared by diluting peptide substrate (final concentration 150 μM) with ATP (final concentration 20 μM) in assay buffer (50 mM Tris/HCl pH 7.4+10 mM MgCl2+1 mM DTT+0.1% BSA). The substrate mix is added to each well of a low volume, 384-well, white opaque plate. Test compounds were diluted in HBSS and added in a dose-response to the plate. To start the reaction, 2 nM of constitutively active human recombinant GST cleaved CSNK1D (University of Dundee, clone DU 19064, stored at 0.28 mg/mL in 50 mM Tris/HCl pH 7.5, 150 mM NaCl, 270 mM Sucrose, 0.1 mM EGTA, 0.1% 2-mercaptoethanol, 0.02% Brij-35.1 mM benzamidine, 0.2 mM PMSF) was added to each well and the plate centrifuged for 5 minutes at 1500 rpm. The total volume of each reaction is 5 ul (2 μL of substrate mix, 1 μL of diluted compounds, and 2 μL of human recombinant CSNK1D). The plates are incubated for 45 minutes at room temperature.
ADP was quantified using the ADP-Glo™ Kinase Assay. ADP-Glo Reagent (5 μL) was added to each well. After a 1 hour incubation at room temperature, Kinase Detection Reagent (10 μL) was added to each well and incubated for 30 minutes. Luminescence was measured on the Perkin Elmer Wallac EnVision 2104 Multi-label Reader. The raw data from the Envision is used to calculate percent activity.

human CSNK1D tagged with nanoluciferase, sequence (P48730 whole entry): as above

Cn1cc(-c2ccnc3[nH]ccc23)c(-c2cccc(F)n2)n1 [Example 29, 4-[3-(6-Fluoro-2-pyridyl)-1-methyl-pyrazol-4-yl]-1H-pyrrolo[2,3-b]pyridine]
IC50 [1]: 186 nM
AC50 [2]: 7 nM

Cc1cccc(-c2nn(C)cc2-c2cc(C)nc3[nH]ncc23)n1 [Example 30, 6-Methyl-4-(1-methyl-3-(6-methylpyridin-2-yl)-1H-pyrazol-4-yl)-1H-pyrazolo[3,4-b]pyridine]
IC50 [1]: 388 nM
AC50 [2]: 24 nM

Cc1ccc(-c2nn(C)cc2-c2ccnc3[nH]ccc23)nc1 [Example 31, 4-[1-Methyl-3-(5-methyl-2-pyridyl)pyrazol-4-yl]-1H-pyrrolo[2,3-b]pyridine]
IC50 [1]: 3120 nM
AC50 [2]: 50 nM

Cc1ccc(-c2nn(C)cc2-c2ccnc3[nH]ncc23)nc1 [Example 32, 4-(1-Methyl-3-(5-methylpyridin-2-yl)-1H-pyrazol-4-yl)-1H-pyrazolo[3,4-b]pyridine]
IC50 [1]: 8940 nM
AC50 [2]: 128 nM

Cn1cc(-c2ccnc3[nH]ncc23)c(-c2ccc(C(F)F)cn2)n1 [Example 33, 4-(3-(5-(Difluoromethyl)pyridin-2-yl)-1-methyl-1H-pyrazol-4-yl)-1H-pyrazolo[3,4-b]pyridine]
IC50 [1]: 17800 nM
AC50 [2]: 317 nM

COc1cccc(-c2nn(C)cc2-c2cc(C)nc3[nH]ncc23)n1 [Example 34, 4-(3-(6-Methoxypyridin-2-yl)-1-methyl-1H-pyrazol-4-yl)-6-methyl-1H-pyrazolo[3,4-b]pyridine]
IC50 [1]: 1980 nM
AC50 [2]: 100 nM

Cn1cc(-c2ccnc3[nH]ccc23)c(-c2ccc(OC(F)F)cn2)n1 [Example 35, 4-[3-[5-(Difluoromethoxy)-2-pyridyl]-1-methyl-pyrazol-4-yl]-1H-pyrrolo[2,3-b]pyridine]
IC50 [1]: > 10000 nM
AC50 [2]: 9180 nM

Cn1cc(-c2ccnc3[nH]ccc23)c(-c2ccc(OC(F)(F)F)cn2)n1 [Example 36, 4-[1-Methyl-3-[5-(trifluoromethoxy)-2-pyridyl]pyrazol-4-yl]-1H-pyrrolo[2,3-b]pyridine]
IC50 [1]: > 10000 nM
AC50 [2]: 6480 nM

Cn1cc(-c2ccnc3[nH]ccc23)c(-c2ncc(F)cc2F)n1 [Example 37, 4-[3-(3,5-Difluoro-2-pyridyl)-1-methyl-pyrazol-4-yl]-1H-pyrrolo[2,3-b]pyridine]
IC50 [1]: 78 nM
AC50 [2]: 15 nM

Cn1cc(-c2ccnc3[nH]ncc23)c(-c2ncc(F)cc2F)n1 [Example 38, 4-(3-(3,5-Difluoropyridin-2-yl)-1-methyl-1H-pyrazol-4-yl)-1H-pyrazolo[3,4-b]pyridine]
IC50 [1]: 390 nM
AC50 [2]: 46 nM

Cc1cc(-c2cn(C)nc2-c2ccc(Cl)c(C)n2)c2cn[nH]c2n1 [Example 39, 4-(3-(5-Chloro-6-methylpyridin-2-yl)-1-methyl-1H-pyrazol-4-yl)-6-methyl-1H-pyrazolo[3,4-b]pyridine]
IC50 [1]: 3250 nM
AC50 [2]: 128 nM

Cc1cc(-c2cn(C)nc2-c2ccc(F)c(C)n2)c2cn[nH]c2n1 [Example 40, 4-(3-(5-Fluoro-6-methylpyridin-2-yl)-1-methyl-1H-pyrazol-4-yl)-6-methyl-1H-pyrazolo[3,4-b]pyridine]
IC50 [1]: 288 nM
AC50 [2]: 19 nM

COc1nc(-c2nn(C)cc2-c2cc(C)nc3[nH]ncc23)ccc1F [Example 41, 4-(3-(5-Fluoro-6-methoxypyridin-2-yl)-1-methyl-1H-pyrazol-4-yl)-6-methyl-1H-pyrazolo[3,4-b]pyridine]
IC50 [1]: 5000 nM
AC50 [2]: 107 nM

COc1nc(-c2nn(C)cc2-c2cc(C)nc3[nH]ncc23)ccc1Cl [Example 42, 4-(3-(5-Chloro-6-methoxypyridin-2-yl)-1-methyl-1H-pyrazol-4-yl)-6-methyl-1H-pyrazolo[3,4-b]pyridine]
IC50 [1]: 2770 nM
AC50 [2]: 134 nM

Cn1cc(-c2ccnc3[nH]ccc23)c(-c2ncc(F)cn2)n1 [Example 43, 4-[3-(5-Fluoropyrimidin-2-yl)-1-methyl-pyrazol-4-yl]-1H-pyrrolo[2,3-b]pyridine]
IC50 [1]: 268 nM
AC50 [2]: 31 nM

Cn1cc(-c2ccnc3[nH]ccc23)c(-c2ccncn2)n1 [Example 44, 4-(1-Methyl-3-pyrimidin-4-yl-pyrazol-4-yl)-1H-pyrrolo[2,3-b]pyridine]
IC50 [1]: 469 nM
AC50 [2]: 54 nM

Cn1cc(-c2ccnc3[nH]ccc23)c(-c2cncnc2)n1 [Example 45, 4-(1-Methyl-3-pyrimidin-5-yl-pyrazol-4-yl)-1H-pyrrolo[2,3-b]pyridine]
IC50 [1]: > 10000 nM
AC50 [2]: 746 nM

Cn1cc(-c2ccnc3[nH]ccc23)c(-c2cnccn2)n1 [Example 46, 4-(1-Methyl-3-pyrazin-2-yl-pyrazol-4-yl)-1H-pyrrolo[2,3-b]pyridine]
IC50 [1]: 2190 nM
AC50 [2]: 84 nM

Cc1cnc(-c2nn(C)cc2-c2ccnc3[nH]ccc23)cn1 [Example 47, 4-[1-Methyl-3-(5-methylpyrazin-2-yl)pyrazol-4-yl]-1H-pyrrolo[2,3-b]pyridine]
IC50 [1]: > 10000 nM
AC50 [2]: 346 nM

Cn1cc(-c2ccnc3[nH]ccc23)c(-c2cccnn2)n1 [Example 48, 4-(1-Methyl-3-pyridazin-3-yl-pyrazol-4-yl)-1H-pyrrolo[2,3-b]pyridine]
IC50 [1]: 3470 nM
AC50 [2]: 39 nM

Cn1cc(-c2ccnc3[nH]ccc23)c(-c2ccnnc2)n1 [Example 49, 4-(1-Methyl-3-pyridazin-4-yl-pyrazol-4-yl)-1H-pyrrolo[2,3-b]pyridine]
IC50 [1]: > 10000 nM
AC50 [2]: 451 nM

Cc1cc(-c2cn(CC3COC3)nc2-c2ccc(F)cn2)c2cn[nH]c2n1 [Example 50, 4-[3-(5-Fluoro-2-pyridyl)-1-(oxetan-3-ylmethyl)pyrazol-4-yl]-6-methyl-1H-pyrazolo[3,4-b]pyridine]
IC50 [1]: 122 nM
AC50 [2]: 5 nM

Cc1c(-c2ccnc3[nH]ccc23)c(-c2ccc(F)cn2)nn1C [Example 51, 4-(3-(5-Fluoropyridin-2-yl)-1,5-dimethyl-1H-pyrazol-4-yl)-1H-pyrrolo[2,3-b]pyridine]
IC50 [1]: 28 nM
AC50 [2]: 5 nM

Cn1nc(-c2ccc(F)cn2)c(-c2ccnc3[nH]ccc23)c1C1CCC1 [Example 52, 4-(5-Cyclobutyl-3-(5-fluoropyridin-2-yl)-1-methyl-1H-pyrazol-4-yl)-1H-pyrrolo[2,3-b]pyridine]
IC50 [1]: 227 nM
AC50 [2]: 13 nM

Cn1cc(-c2ccnc3[nH]ccc23)c(-c2cccnc2)n1 [Example 53, 4-[1-Methyl-3-(3-pyridyl)pyrazol-4-yl]-1H-pyrrolo[2,3-b]pyridine]
IC50 [1]: 359 nM
AC50 [2]: 68 nM

CCn1cc(-c2ccnc3[nH]ccc23)c(-c2ccc(F)cn2)n1 [Example 55, 4-[1-Ethyl-3-(5-fluoro-2-pyridyl)pyrazol-4-yl]-1H-pyrrolo[2,3-b]pyridine]
IC50 [1]: 93 nM
AC50 [2]: 7 nM

CCn1cc(-c2ccnc3[nH]ncc23)c(-c2ccc(F)cn2)n1 [Example 56, 4-(1-Ethyl-3-(5-fluoropyridin-2-yl)-1H-pyrazol-4-yl)-1H-pyrazolo[3,4-b]pyridine]
IC50 [1]: 205 nM
AC50 [2]: 5 nM

CCn1cc(-c2cc(C)nc3[nH]ncc23)c(-c2ccc(F)cn2)n1 [Example 57, 4-(1-Ethyl-3-(5-fluoropyridin-2-yl)-1H-pyrazol-4-yl)-6-methyl-1H-pyrazolo[3,4-b]pyridine]
IC50 [1]: 219 nM
AC50 [2]: 14 nM

CC(C)n1cc(-c2ccnc3[nH]ccc23)c(-c2ccc(F)cn2)n1 [Example 58, 4-[3-(5-Fluoro-2-pyridyl)-1-isopropyl-pyrazol-4-yl]-1H-pyrrolo[2,3-b]pyridine]
IC50 [1]: 97 nM
AC50 [2]: 17 nM

CC(C)n1cc(-c2ccnc3[nH]ncc23)c(-c2ccc(F)cn2)n1 [Example 59, 4-(3-(5-Fluoropyridin-2-yl)-1-isopropyl-1H-pyrazol-4-yl)-1H-pyrazolo[3,4-b]pyridine]
IC50 [1]: 326 nM
AC50 [2]: 44 nM

Cc1cc(-c2cn(C(C)C)nc2-c2ccc(F)cn2)c2cn[nH]c2n1 [Example 60, 4-(3-(5-Fluoropyridin-2-yl)-1-isopropyl-1H-pyrazol-4-yl)-6-methyl-1H-pyrazolo[3,4-b]pyridine]
IC50 [1]: 372 nM
AC50 [2]: 11 nM
